From US6958402B2, “3-(imidazolyl)-2-alkoxypropanoic acids” (Pfizer, Inc., priority 2002, dated 2005)
Where a name gives a salt, the structure may show the parent alone.

Legend:
[1] = biological target: T1, TAFIa (activated human TAFI) (Homo sapiens, UniProt Q96IY4); assay: Assay for TAFIa inhibition (Ki determination, FAAL substrate hydrolysis); assay type: biochemical; details: Ki calculated from IC50 with Cheng-Prusoff equation; substrate furylacryloyl-alanyl-lysine, 24° C.; read-out: Ki (TAFla)
T1 sequence (Q96IY4 115-423): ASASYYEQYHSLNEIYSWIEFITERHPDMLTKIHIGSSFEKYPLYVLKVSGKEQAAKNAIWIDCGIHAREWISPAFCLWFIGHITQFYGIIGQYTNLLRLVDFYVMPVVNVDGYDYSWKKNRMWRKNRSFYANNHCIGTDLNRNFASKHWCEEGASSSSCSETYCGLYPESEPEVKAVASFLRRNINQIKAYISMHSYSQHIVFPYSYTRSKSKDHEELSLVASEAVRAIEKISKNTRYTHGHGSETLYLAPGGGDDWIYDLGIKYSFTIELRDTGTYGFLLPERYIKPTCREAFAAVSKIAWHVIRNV
Experimental: The compounds are incubated with activated TAFI and a standard substrate for TAFIa, the rate of hydrolysis of the substrate is determined and compared to the rate of hydrolysis in the absence of the compounds, and the amount of inhibition expressed in terms of Ki.
Human TAFI (recombinant or purified) was activated by incubating 20 μl of stock solution (360 μg/ml) with 10 μl of human thrombin (10NIH units/ml), 10 μl of rabbit thrombomodulin (30 μg/ml), 6 μl calcium chloride (50 mM) in 50 μl of 20 mM HEPES (N-[2-hydroxyethyl]piperazine-N-[2-ethanesulfonic acid]) buffer containing 150 mM sodium chloride and 0.01% TWEEN 80 (polyoxyethylene-sorbitan monooleate) pH 7.6 for 20 minutes at 22° C. At the end of the incubation period, thrombin was neutralised by the addition of 10 μL of PPACK (D-Phe-Pro-Arg chloromethyi ketone) (100 nM). The resulting TAFIa. solution was stored on ice for 5 minutes and finally diluted with 175 μl of HEPES buffer.
(§1) A number of different dilutions of the test compound in water were made up. To 20 μl of each dilution was added 150 μl of HEPES buffer and 10 μl of TAFIa, which was then pre-incubated for 15 minutes at 24° C. To each dilution was then added 20 μl furylacryloyl-alanyl-lysine (FAAL) at a standard concentration. Substrate turnover was measured by reading the absorbance of the reaction mixture at 330 nm every 15 seconds for 30 minutes. The reaction was performed at 24° C. and samples were mixed for 3 seconds prior to each absorbance reading.
(§2) A graph of % inhibition against test compound concentration was then plotted; from which was calculated the IC50 value. The Ki value was then calculated using the Cheng-Prusoff equation.
For the first control, the assay was performed as above, but with 20 μl of water rather than a dilution of the test compound.

human CPN = biological target: T2, human CPN (Homo sapiens, UniProt P15169); assay: CPN Ki determination (TAFIa assay with human CPN substituted for TAFIa); assay type: biochemical
T2 sequence (P15169 21-458): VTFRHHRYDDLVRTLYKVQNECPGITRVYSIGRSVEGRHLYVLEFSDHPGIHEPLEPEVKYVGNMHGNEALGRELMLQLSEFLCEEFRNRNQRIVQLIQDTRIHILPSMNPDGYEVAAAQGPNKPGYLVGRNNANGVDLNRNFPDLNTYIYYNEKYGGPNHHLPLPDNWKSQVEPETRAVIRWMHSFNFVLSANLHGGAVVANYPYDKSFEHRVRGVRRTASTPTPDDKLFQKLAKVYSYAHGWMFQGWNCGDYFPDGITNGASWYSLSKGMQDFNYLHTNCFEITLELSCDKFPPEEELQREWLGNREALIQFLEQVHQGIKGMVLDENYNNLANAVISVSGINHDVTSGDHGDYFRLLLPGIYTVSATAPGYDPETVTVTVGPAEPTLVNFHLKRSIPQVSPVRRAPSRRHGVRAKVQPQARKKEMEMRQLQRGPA
T2 sequence (P22792 22-545 partner): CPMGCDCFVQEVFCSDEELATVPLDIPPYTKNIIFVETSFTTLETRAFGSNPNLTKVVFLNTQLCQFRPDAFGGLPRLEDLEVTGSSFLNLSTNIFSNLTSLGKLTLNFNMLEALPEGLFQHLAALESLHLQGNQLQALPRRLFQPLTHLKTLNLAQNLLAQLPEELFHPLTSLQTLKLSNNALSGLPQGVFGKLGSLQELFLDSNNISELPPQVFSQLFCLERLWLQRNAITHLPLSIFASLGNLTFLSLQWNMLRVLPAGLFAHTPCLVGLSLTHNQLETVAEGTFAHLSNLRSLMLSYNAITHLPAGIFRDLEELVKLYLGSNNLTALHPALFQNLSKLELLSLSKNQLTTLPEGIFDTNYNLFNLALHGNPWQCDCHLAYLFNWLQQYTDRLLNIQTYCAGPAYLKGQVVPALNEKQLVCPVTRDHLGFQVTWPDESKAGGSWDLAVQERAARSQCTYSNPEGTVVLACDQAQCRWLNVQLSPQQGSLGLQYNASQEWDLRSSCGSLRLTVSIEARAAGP
Experimental: as §1, §2
The selectivity of the compounds of the present invention for TAFIa over CPN was determined by calculating the Ki of the compounds of the present invention for CPN, then comparing it to the Ki for TAFIa. The Ki was calculated using the assay for the calculation of TAFIa Ki, but substituting 10 μl of human CPN for 10 μl of TAFIa.

| SMILES | Ki [1] [µM] | Selectivity for TAFIa over CPN (human CPN; Ki for CPN compared to Ki for TAFIa) | Ki (human CPN; same assay with 10 μl human CPN in place of TAFIa) [µM] |
| --- | --- | --- | --- |
| NCCOC(Cc1cn(CCc2ccccc2)cn1)C(=O)O (stereo not shown) [Example 4] | 0.01 | – | – |
| NCCO[C@@H](Cc1cn(CCC2CCCCC2)cn1)C(=O)O [Example 5, (2S)-(−)-2-(2-Aminoethoxy)-3-[1-(2-cyclohexylethyl)-1H-imidazol-4-yl]propanoic acid] | 0.01 | – | – |
| NCCOC(Cc1cn(-c2cccc(Oc3ccccc3)c2)cn1)C(=O)O (stereo not shown) [Example 40, 2-(2-Aminoethoxy)-3-[1-(3-phenoxyphenyl)-1H-imidazol-4-yl]propanoic acid dihydrochloride] | 0.014 | – | – |
| C[C@H](CN)O[C@@H](Cc1cn(-c2ccc(OC3CCCCC3)cc2)cn1)C(=O)O [Example 49, (2S)-2-{[(1R)-2-Amino-1-methylethyl]oxy}-3-{1-[4-(cyclohexyloxy)phenyl]-1H-imidazol-4-yl}propanoic acid] | 0.009 | – | – |
| C[C@H](CN)O[C@@H](Cc1c[nH]cn1)C(=O)O [Example 51, (2S)-2-{[(1R)-2-Amino-1-methylethyl]oxy}-3-(1H-imidazol-4-yl)propanoic acid] | 0.026 | >380 | > 10 |
